Data reported in ChEMBL document CHEMBL1201862, “PubChem BioAssay data set” (2004).
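Protocol summary: plate cells (96-well), add compound at 5 concentrations, incubate 48 h, interpolate endpoints linearly. The concentration for 50% growth inhibition is given as GI50.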 Activity calls are given as the source filed them. Rule as the data show it: active = GI50 up to about 1.1 µM and inactive = higher.

How the values were obtained:
Experiment in all cases: NCI-60 cell line screen, 48 h
SW-620 = system: SW-620
SNB-75 = system: SNB-75
UACC-62 = system: UACC-62
SF-295 = system: SF-295
HT-29 = system: HT-29
UO-31 = system: UO-31
SK-OV-3 = system: SK-OV-3
Malme-3M = system: Malme-3M
CCRF-CEM = system: CCRF-CEM
SK-MEL-2 = system: SK-MEL-2
OVCAR-5 = system: OVCAR-5
MDA-MB-435 = system: MDA-MB-435
RPMI-8226 = system: RPMI-8226
DU-145 = system: DU-145
NCI-H23 = system: NCI-H23
LOX IMVI = system: LOX IMVI
SK-MEL-5 = system: SK-MEL-5
MDA-MB-231 = system: MDA-MB-231
PC-3 = system: PC-3
HCT-15 = system: HCT-15
NCI/ADR-RES = system: NCI/ADR-RES
K562 = system: K562
SNB-19 = system: SNB-19
TK-10 = system: TK-10
786-0 = system: 786-0
Hs-578T = system: Hs-578T
SF-268 = system: SF-268
MOLT-4 = system: MOLT-4
KM12 = system: KM12
T47D = system: T47D
SR = system: SR
HOP-62 = system: HOP-62
OVCAR-3 = system: OVCAR-3
NCI-H460 = system: NCI-H460
MDA-N = system: MDA-N
U-251 = system: U-251
NCI-H226 = system: NCI-H226
ACHN = system: ACHN
SK-MEL-28 = system: SK-MEL-28
HCT-116 = system: HCT-116
A549 = system: A549
HCC 2998 = system: HCC 2998
EKVX = system: EKVX
COLO 205 = system: COLO 205
RXF 393 = system: RXF 393
NCI-H522 = system: NCI-H522
OVCAR-4 = system: OVCAR-4
IGROV-1 = system: IGROV-1
SN12C = system: SN12C
UACC-257 = system: UACC-257
SF-539 = system: SF-539
M14 = system: M14
BT-549 = system: BT-549
CAKI-1 = system: CAKI-1
MCF7 = system: MCF7
OVCAR-8 = system: OVCAR-8
HL-60 = system: HL-60

Measured: GI50

COc1ccc(N(C)S(=O)(=O)c2ccccc2)cc1
> 100 µM: HCT-15
inactive: SW-620 > 100 µM | SNB-75 > 100 µM | UACC-62 75 µM | SF-295 > 100 µM | HT-29 > 100 µM | UO-31 > 100 µM | SK-OV-3 > 100 µM | Malme-3M > 100 µM | CCRF-CEM > 100 µM | SK-MEL-2 > 100 µM | OVCAR-5 > 100 µM | MDA-MB-435 59.2 µM | RPMI-8226 86.9 µM | DU-145 > 100 µM | NCI-H23 67.1 µM | LOX IMVI > 100 µM | SK-MEL-5 61.8 µM | MDA-MB-231 > 100 µM | PC-3 72.1 µM | NCI/ADR-RES > 100 µM | K562 28.5 µM | SNB-19 > 100 µM | TK-10 > 100 µM | 786-0 > 100 µM | Hs-578T > 100 µM | SF-268 > 100 µM | MOLT-4 29.4 µM | KM12 > 100 µM | T47D 53.1 µM | SR 87.9 µM | HOP-62 > 100 µM | OVCAR-3 > 100 µM | NCI-H460 94.8 µM | MDA-N > 100 µM | U-251 > 100 µM | NCI-H226 > 100 µM | ACHN > 100 µM | SK-MEL-28 > 100 µM | HCT-116 > 100 µM | A549 > 100 µM | HCC 2998 56 µM | EKVX > 100 µM | COLO 205 > 100 µM | RXF 393 > 100 µM | NCI-H522 > 100 µM | OVCAR-4 > 100 µM | IGROV-1 > 100 µM | SN12C > 100 µM | UACC-257 > 100 µM | SF-539 > 100 µM | M14 > 100 µM | BT-549 > 100 µM | CAKI-1 > 100 µM | MCF7 > 100 µM | OVCAR-8 > 100 µM | HL-60 > 100 µM
